Results published in patent publication US9623121B2, “Optical-imaging probe for detecting sentinel lymph nodes which contains a composite of poly-gamma-glutamic acid and an optical-imaging dye” (BIOLEADERS CORPORATION, priority 2010, dated 2017).

Assays:
[1] = In vivo near-infrared imaging of the sentinel lymph node after subcutaneous footpad injection; design: species or system BALB/c nude mice; details: 0.01% solution, 50 μl s.c. into left forefoot, 30 minutes after injection
Description: In animal tests, 6-week-old female BALB/c nude mice (SLC Inc., Japan) with no pathogens were used. All the tests were performed under the approval of the Laboratory Animal Center, Chungnam National University.
For data acquisition and analysis, images (see FIG. 3) were obtained using a home-made NIR optical imaging system (see FIG. 2) manufactured by the present inventors. Herein, the near-infrared optical imaging system comprises a light source consisting of a 500 mW fiber-type laser, an emission filter, a lens system equipped with a microzoom, and a near-infrared detector (NIR CCD detector) (see FIG. 2). In the near infrared imaging system, the intensity of fluorescence appears as a pseudo color, and more red fluorescence indicates stronger intensity.
Before imaging, mice were anesthetized by intraperitoneally injecting a 2.5% avertin (2,2,2-tribromoethanol-tert-amyl alcohol, Sigma) solution at a dose of 0.01 Ml/g weight. 50 μl of each of an ICG solution (0.01%), ICG/γ-PGA (50 kDa) complex solutions (0.01%, 0.1% and 1%) and ICG/γ-PGA (7000 kDa) complex solutions (0.01%, 0.1% and 1%) was injected into the left forefoot of each nude mouse (footpad, subcutaneous injection), and after 5 min, 20 min and 30 min, the fluorescence of the sentinel lymph node was measured. […]

[2] = Light stability: near-infrared fluorescence intensity of solutions kept at room temperature for 3 days; assay type: physicochemical; details: 50 μl of solution (0.01% ICG) in tube, after 3 days
Description: 50 μl of the prepared ICG/γ-PGA complex solution was dispensed into a 1.5 Ml tube, and then the near-infrared fluorescence spectrum thereof was measured using a fluorescence spectrophotometer (FluoroMate FS-2) (see FIG. 1).

fluorescence intensity (light stability) [2]: rapidly decreased
SMILES: CC1(C)C(/C=C/C=C/C=C/C=C2\N(CCCCS(=O)(=O)O)c3ccc4ccccc4c3C2(C)C)=[N+](CCCCS(=O)(=O)[O-])c2ccc3ccccc3c21 [ICG, Indocyanine green]
intensity of fluorescence emitted from the sentinel lymph node [1]: very weak
retention in the sentinel lymph node / migration to other lymph nodes [1]: did not remain in the sentinel lymph node and migrated to other lymph node
